Each structure is given as a SMILES string.

This experiment deals with tubulin. Description: Inhibition of tubulin polymerization. The format is biochemical. Conditions: read-out: Inhibition of tubulin polymerization IC50; pure protein assay.
On to `COc1cc(/C=C\c2ccc(OC)c(OP(=O)(O)O)c2O)cc(OC)c1OC` [4a (Z), (Z)-1-[3′,4′,5′-Trimethoxyphenyl]-2-[2″-[hydroxy]-3″-[(disodium)phosphate]-4″-methoxyphenyl] ethene], for which the IC50 was over 40 µM.

For the compound `COc1ccc(/C=C\c2cc(OC)c(OC)c(OC)c2)c(OP(=O)(O)O)c1O` [8a (Z), (Z)-1-[3′,4′,5′-Trimethoxyphenyl]-2-[2″-[(disodium)phosphate]-3″-[hydroxy]-4″-methoxyphenyl] ethene], the IC50 was over 40 µM.

In the case of `COc1cc(/C=C\c2ccc(OC)c(OP(=O)(O)O)c2OP(=O)(O)O)cc(OC)c1OC` [CA1P (Z), reference compound], the IC50 was over 40 µM.

Source of the values: publication PMC3275140 (Journal of Natural Products, 2011).
